# Laboratory results published in PubChem BioAssay AID1745844 (Carcinogenic Potency Database (CPDB), 2022).
# “And” between values parts separate entries of the source, which are not always exact repeats. Identical values can stand only once. The source made the active and inactive calls. How the calls were made is not given here.
# Test system: rodent lifetime carcinogenesis bioassay, tumor incidence TD50
# Assay: carcinogenic potency in animals, long-term in vivo studies, CPDB compilation (AID 1745844)
# [1] = mouse, strain B6AKF1, females, oral dosing, site: lung, lesion: adenoma, dosed 76 weeks, study length 76 weeks
compound,measurement,setting,value
CCCCOCCOCCOCc1cc2c(cc1CCC)OCO2,carcinogen call,"mouse, strain B6AKF1, females, oral dosing, site: liver, lesion: hepatoma, dosed 76 weeks, study length 76 weeks",negative (inactive)
same,TD50,[1],265 mg/kg/day
same,carcinogen call,[1],negative (inactive)
same,carcinogen call,"mouse, strain B6AKF1, males, oral dosing, site: any site (literature study), lesion: several types, types named in the paper, dosed 76 weeks, study length 76 weeks",negative (inactive)
same,carcinogen call,"mouse, strain B6AKF1, males, oral dosing, site: liver, lesion: hepatoma, dosed 76 weeks, study length 76 weeks",negative (inactive)
same,carcinogen call,"mouse, strain B6AKF1, males, oral dosing, site: lung, lesion: adenoma, dosed 76 weeks, study length 76 weeks",negative (inactive)
same,carcinogen call,"mouse, strain B6C3F1, females, in feed, site: any site (literature study), lesion: several types, types named in the paper, dosed 112 weeks, study length 112 weeks",negative (inactive)
same,TD50,"mouse, strain B6C3F1, females, in feed, site: liver, lesion: hepatocellular adenoma + hepatocellular carcinoma + neoplastic nodule, dosed 112 weeks, study length 112 weeks",3260 mg/kg/day
same,carcinogen call,"mouse, strain B6C3F1, females, oral dosing, site: any site (literature study), lesion: one or several types, types not named, dosed 76 weeks, study length 76 weeks",negative (inactive)
same,TD50,"mouse, strain B6C3F1, females, oral dosing, site: any site (literature study), lesion: several types, types named in the paper, dosed 76 weeks, study length 76 weeks",83.1 mg/kg/day
same,carcinogen call,"mouse, strain B6C3F1, females, oral dosing, site: liver, lesion: hepatoma, dosed 76 weeks, study length 76 weeks",negative (inactive)
same,carcinogen call,"mouse, strain B6C3F1, females, oral dosing, site: lung, lesion: several types, types named in the paper, dosed 76 weeks, study length 76 weeks",negative (inactive)
same,carcinogen call,"mouse, strain B6C3F1, males, in feed, site: any site (literature study), lesion: several types, types named in the paper, dosed 112 weeks, study length 112 weeks",negative (inactive)
same,TD50,"mouse, strain B6C3F1, males, oral dosing, site: all sites, lesion: reticulum-cell sarcoma, dosed 76 weeks, study length 76 weeks",34.8 mg/kg/day
same,TD50,"mouse, strain B6C3F1, males, oral dosing, site: liver, lesion: hepatoma, dosed 76 weeks, study length 76 weeks",186 mg/kg/day (inactive) and 98.5 mg/kg/day
same,carcinogen call,"mouse, strain B6C3F1, males, oral dosing, site: lung, lesion: several types, types named in the paper, dosed 76 weeks, study length 76 weeks",negative (inactive)
same,TD50,"mouse, strain Charles River CD1, females, in feed, site: liver, lesion: basophil adenoma, dosed 79 weeks, study length 79 weeks",4540 mg/kg/day
same,TD50,"mouse, strain Charles River CD1, females, in feed, site: liver, lesion: eosinophilic adenoma, dosed 79 weeks, study length 79 weeks",1120 mg/kg/day
same,TD50,"mouse, strain Charles River CD1, females, in feed, site: liver, lesion: hepatocellular adenoma, dosed 52 weeks, study length 52 weeks",2380 mg/kg/day
same,TD50,"mouse, strain Charles River CD1, females, in feed, site: liver, lesion: hepatocellular adenoma, dosed 79 weeks, study length 79 weeks",825 mg/kg/day
same,TD50,"mouse, strain Charles River CD1, females, in feed, site: liver, lesion: hepatocellular carcinoma, dosed 52 weeks, study length 52 weeks",756 mg/kg/day
same,TD50,"mouse, strain Charles River CD1, females, in feed, site: liver, lesion: several types, types named in the paper, dosed 52 weeks, study length 52 weeks",516 mg/kg/day
same,TD50,"mouse, strain Charles River CD1, males, in feed, site: liver, lesion: basophil adenoma, dosed 79 weeks, study length 79 weeks",844 mg/kg/day
same,TD50,"mouse, strain Charles River CD1, males, in feed, site: liver, lesion: eosinophilic adenoma, dosed 79 weeks, study length 79 weeks",355 mg/kg/day
same,TD50,"mouse, strain Charles River CD1, males, in feed, site: liver, lesion: hepatocellular adenoma, dosed 52 weeks, study length 52 weeks",1060 mg/kg/day
same,TD50,"mouse, strain Charles River CD1, males, in feed, site: liver, lesion: hepatocellular adenoma, dosed 79 weeks, study length 79 weeks",160 mg/kg/day
same,TD50,"mouse, strain Charles River CD1, males, in feed, site: liver, lesion: hepatocellular carcinoma, dosed 52 weeks, study length 52 weeks",410 mg/kg/day
same,TD50,"mouse, strain Charles River CD1, males, in feed, site: liver, lesion: hepatocellular carcinoma, dosed 79 weeks, study length 79 weeks",3470 mg/kg/day
same,TD50,"mouse, strain Charles River CD1, males, in feed, site: liver, lesion: mixed cell adenoma, dosed 79 weeks, study length 79 weeks",2630 mg/kg/day
same,TD50,"mouse, strain Charles River CD1, males, in feed, site: liver, lesion: several types, types named in the paper, dosed 52 weeks, study length 52 weeks",229 mg/kg/day
same,TD50,"rat, strain Charles River CD (Sprague-Dawley), females, in feed, site: liver, lesion: hepatocellular carcinoma, dosed 104 weeks, study length 104 weeks",12800 mg/kg/day (inactive)
same,TD50,"rat, strain Charles River CD (Sprague-Dawley), males, in feed, site: liver, lesion: hepatocellular adenoma, dosed 104 weeks, study length 104 weeks",12800 mg/kg/day (inactive)
same,TD50,"rat, strain Charles River CD (Sprague-Dawley), males, in feed, site: liver, lesion: hepatocellular carcinoma, dosed 104 weeks, study length 104 weeks",78500 mg/kg/day (inactive)
same,carcinogen call,"rat, strain F344/DuCrj, females, in feed, site: any site (literature study), lesion: several types, types named in the paper, dosed 104 weeks, study length 110 weeks",negative (inactive)
same,TD50,"rat, strain F344/DuCrj, females, in feed, site: liver, lesion: cholangioma, cystic, dosed 96 weeks, study length 96 weeks",19100 mg/kg/day
same,TD50,"rat, strain F344/DuCrj, females, in feed, site: liver, lesion: hepatocellular adenoma, dosed 96 weeks, study length 96 weeks",2460 mg/kg/day
same,TD50,"rat, strain F344/DuCrj, females, in feed, site: liver, lesion: hepatocellular carcinoma, dosed 96 weeks, study length 96 weeks",2220 mg/kg/day
same,TD50,"rat, strain F344/DuCrj, females, in feed, site: liver, lesion: hepatocellular tumor, dosed 96 weeks, study length 96 weeks",977 mg/kg/day
same,carcinogen call,"rat, strain F344/DuCrj, females, in feed, site: liver, lesion: neoplastic nodule, dosed 104 weeks, study length 110 weeks",negative (inactive)
same,carcinogen call,"rat, strain F344/DuCrj, males, in feed, site: any site (literature study), lesion: several types, types named in the paper, dosed 104 weeks, study length 110 weeks",negative (inactive)
same,TD50,"rat, strain F344/DuCrj, males, in feed, site: liver, lesion: cholangioma, cystic, dosed 95 weeks, study length 95 weeks",30200 mg/kg/day
same,TD50,"rat, strain F344/DuCrj, males, in feed, site: liver, lesion: hepatocellular adenoma, dosed 95 weeks, study length 95 weeks",1400 mg/kg/day
same,TD50,"rat, strain F344/DuCrj, males, in feed, site: liver, lesion: hepatocellular carcinoma, dosed 95 weeks, study length 95 weeks",806 mg/kg/day
same,TD50,"rat, strain F344/DuCrj, males, in feed, site: liver, lesion: hepatocellular carcinoma, dosed 104 weeks, study length 110 weeks",20100 mg/kg/day (inactive)
same,TD50,"rat, strain F344/DuCrj, males, in feed, site: liver, lesion: hepatocellular tumor, dosed 95 weeks, study length 95 weeks",468 mg/kg/day
same,TD50,"rat, strain F344/DuCrj, males, in feed, site: liver, lesion: neoplastic nodule, dosed 104 weeks, study length 110 weeks",7690 mg/kg/day (inactive)
same,TD50,"rat, strain Fischer 344, females, in feed, site: all sites, lesion: lymphoma, dosed 107 weeks, study length 107 weeks",1180 mg/kg/day (inactive)
same,TD50,"rat, strain Fischer 344, females, in feed, site: any site (literature study), lesion: several types, types named in the paper, dosed 107 weeks, study length 107 weeks",7820 mg/kg/day
same,carcinogen call,"rat, strain Fischer 344, males, in feed, site: any site (literature study), lesion: several types, types named in the paper, dosed 107 weeks, study length 107 weeks",negative (inactive)
same,TD50,"rat, strain Wistar, both sexes, in feed, site: liver, lesion: hepatocellular carcinoma, dosed 95 weeks, study length 104 weeks",26100 mg/kg/day (inactive)
same,TD50,"rat, strain Wistar, both sexes, in feed, site: liver, lesion: hepatoma, dosed 95 weeks, study length 104 weeks",22500 mg/kg/day (inactive)
CCc1nc(N)nc(N)c1-c1ccc(Cl)cc1,TD50,"mouse, strain B6C3F1, females, in feed, site: any site (literature study), lesion: several types, types named in the paper, dosed 78 weeks, study length 104 weeks",315 mg/kg/day (inactive)
same,TD50,"mouse, strain B6C3F1, females, in feed, site: lung, lesion: alveolar/bronchiolar adenoma + alveolar/bronchiolar carcinoma, dosed 78 weeks, study length 104 weeks",405 mg/kg/day
same,TD50,"mouse, strain B6C3F1, males, in feed, site: any site (literature study), lesion: several types, types named in the paper, dosed 78 weeks, study length 104 weeks",419 mg/kg/day
same,TD50,"rat, strain Fischer 344, females, in feed, site: any site (literature study), lesion: several types, types named in the paper, dosed 78 weeks, study length 104 weeks",27.8 mg/kg/day (inactive)
same,carcinogen call,"rat, strain Fischer 344, males, in feed, site: any site (literature study), lesion: several types, types named in the paper, dosed 78 weeks, study length 104 weeks",negative (inactive)
OCc1ccccc1,TD50,"mouse, strain B6C3F1, females, by gavage, site: any site (literature study), lesion: several types, types named in the paper, dosed 103 weeks, study length 104 weeks",57500 mg/kg/day (inactive)
same,TD50,"mouse, strain B6C3F1, females, by gavage, site: liver, lesion: hepatocellular adenoma + hepatocellular carcinoma + neoplastic nodule, dosed 103 weeks, study length 104 weeks",1040 mg/kg/day
same,TD50,"mouse, strain B6C3F1, males, by gavage, site: adrenal gland, lesion: cortical adenoma, dosed 103 weeks, study length 104 weeks",1620 mg/kg/day (inactive)
same,TD50,"mouse, strain B6C3F1, males, by gavage, site: liver, lesion: hepatocellular adenoma + hepatocellular carcinoma + neoplastic nodule, dosed 103 weeks, study length 104 weeks",588 mg/kg/day
same,TD50,"mouse, strain B6C3F1, males, by gavage, site: lung, lesion: alveolar/bronchiolar adenoma + alveolar/bronchiolar carcinoma, dosed 103 weeks, study length 104 weeks",546 mg/kg/day
same,TD50,"rat, strain Fischer 344, females, by gavage, site: any site (literature study), lesion: several types, types named in the paper, dosed 103 weeks, study length 104 weeks",885 mg/kg/day (inactive)
same,TD50,"rat, strain Fischer 344, males, by gavage, site: mammary gland, lesion: adenoma, NOS + fibroadenoma, dosed 103 weeks, study length 104 weeks",1140 mg/kg/day (inactive)
same,TD50,"rat, strain Fischer 344, males, by gavage, site: mammary gland, lesion: fibroadenoma, dosed 103 weeks, study length 104 weeks",1380 mg/kg/day
Cc1ccc2ccccc2c1,TD50,"mouse, strain B6C3F1, females, in feed, site: liver, lesion: hepatocellular adenoma, dosed 81 weeks, study length 81 weeks",6060 mg/kg/day
same,TD50,"mouse, strain B6C3F1, females, in feed, site: lung, lesion: several types, types named in the paper, dosed 81 weeks, study length 81 weeks",4010 mg/kg/day
same,TD50,"mouse, strain B6C3F1, males, in feed, site: lung, lesion: alveolar/bronchiolar adenoma, dosed 81 weeks, study length 81 weeks",735 mg/kg/day
same,TD50,"mouse, strain B6C3F1, males, in feed, site: lung, lesion: alveolar/bronchiolar carcinoma, dosed 81 weeks, study length 81 weeks",2780 mg/kg/day
same,TD50,"mouse, strain B6C3F1, males, in feed, site: lung, lesion: several types, types named in the paper, dosed 81 weeks, study length 81 weeks",205 mg/kg/day
Nc1c(F)c(N)c(F)c(F)c1F,TD50,"mouse, strain CD-1 HaM/ICR, females, in feed, site: liver, lesion: several types, types named in the paper, dosed 77 weeks, study length 94 weeks",6500 mg/kg/day (inactive)
same,carcinogen call,"mouse, strain CD-1 HaM/ICR, females, in feed, site: lung, lesion: several types, types named in the paper, dosed 77 weeks, study length 94 weeks",negative (inactive)
same,TD50,"mouse, strain CD-1 HaM/ICR, males, in feed, site: any site (literature study), lesion: several types, types named in the paper, dosed 77 weeks, study length 94 weeks",331 mg/kg/day
same,TD50,"mouse, strain CD-1 HaM/ICR, males, in feed, site: liver, lesion: hepatoma, dosed 77 weeks, study length 94 weeks",86.3 mg/kg/day and 109 mg/kg/day
same,TD50,"mouse, strain CD-1 HaM/ICR, males, in feed, site: liver, lesion: several types, types named in the paper, dosed 77 weeks, study length 94 weeks",78.3 mg/kg/day
same,TD50,"mouse, strain CD-1 HaM/ICR, males, in feed, site: lung, lesion: several types, types named in the paper, dosed 77 weeks, study length 94 weeks",1130 mg/kg/day (inactive)
same,TD50,"rat, strain Charles River CD (Sprague-Dawley), males, in feed, site: any site (literature study), lesion: several types, types named in the paper, dosed 77 weeks, study length 98 weeks",14.6 mg/kg/day (inactive)
same,carcinogen call,"rat, strain Charles River CD (Sprague-Dawley), males, in feed, site: liver, lesion: several types, types named in the paper, dosed 77 weeks, study length 98 weeks",negative (inactive)
